Measurements taken from patent US8969297B2, “Methods and compositions for the induction of hypothermia” (priority 2009, dated 2015).

What was measured:
[1] = system: asphyxial cardiac arrest rat model; assay: Survival in rat outcome model of asphyxial cardiac arrest; type: in vivo; conditions: for Survival days: individual rats; for effect on mortality / neurological deficit score: compound alone under normothermic conditions
Protocol: (§1) The outcome model of asphyxial cardiac arrest in rats was used for these studies and has been described previously (Katz et al. (1995) J Cereb Blood Flow Metab 15:1032-1039). Briefly, rats were anesthetized with 4% isoflurane, intubated and mechanically ventilated, anesthesia was titrated and vessel catheters inserted. Cardiac arrest was induced by apneic asphyxia with chemical paralysis (vecuronium 2 mg/kg) and discontinuation of ventilation. After 10 minutes of asphyxial cardiac arrest, rats were resuscitated with mechanical ventilation, 100% O2, epinephrine (0.005 mg/kg) and chest compressions. Rats were extubated two hours after resuscitation and placed in a humidity and temperature controlled incubator. Rats were sacrificed by an overdose (5%) of inhaled isoflurane and then perfusion fixed with 100 ml of 4% paraformaldehyde at a perfusion pressure of 100 mmHg. Multiple coronal sections (10 μm thickness) of the brain (Paxinos et al. (1995) J Neurosci Methods 13:139-143) were cryosectioned for future immunostaining and histological evaluation.
(§2) Rats underwent ten minutes of asphyxial cardiac arrest and resuscitation. Five minutes after the return of spontaneous circulation (ROSC), rats were administered 15 ml/kg of iced normal (0.9%) saline (5° C.) (forced hypothermia) or half of the indicated treatment (at room temperature, 21° C.) intravenously over 20 minutes. The first infusion was followed immediately by a second 20-minutee infusion (15 ml/kg) with iced saline (5° C.) for the forced hypothermia group or the second half of the indicated treatment (at 21° C.).
(§3) The rat outcome model of asphyxial cardiac arrest was used to test each of the components of the cocktail to determine the effects of the components on NDS and performance in the Morris Water Maze. Rats undergoing forced hypothermia and rats maintained under normothermic conditions (with 0.5 U/kg vasopressin administered) served as controls.

[2] = system: asphyxial cardiac arrest rat model; assay: Neurological deficit score (NDS) in rat model of asphyxial cardiac arrest; type: in vivo; conditions: normothermic conditions; for NDS 72 hours after resuscitation: ethanol alone or vasopressin alone
Protocol: as §1, with “evaluation. […]” for “evaluation.”
The total ND score is composed of 5 components as outlined below. A normal rat has a ND score of 0% and a brain-dead rat has an ND score of 100% (Katz et al. (1995) J Cereb Blood Flow Metab 15:1032-1039).
as §2, with “Five” for “Rats underwent ten minutes of asphyxial cardiac arrest and resuscitation. Five”
as §3, with “controls. Raw survival and NDS data is shown in Table 1 and Table 2 provides a summary of the survival and NDS data.” for “controls.”

rats = conditions: ethanol alone
Protocol: as §2

[3] = Gable (2004); cited from earlier work
[4] = 0.005 mg/kg, normothermic conditions
[5] = 0.8 g/kg, normothermic conditions
[6] = 20 mcg/kg, normothermic conditions
[7] = 0.25 U/kg, normothermic conditions
[8] = 1 mg/kg, normothermic conditions

With `CC(=O)N[C@@H](CS)C(=O)O` [N-Acetylcysteine, (2R)-2-acetamido-3-sulfanylpropanoic acid] the “Average Survival days” value ([1]; 50 mg/kg, normothermic conditions) was 1.5 days, the “Average Survival days” value ([1]; 150 mg/kg, normothermic conditions) was 3 days and the “Average Survival days” value ([1]; 300 mg/kg, normothermic conditions) was 2.5 days. For the same compound, the “NDS day 3, median neurological deficit score” value ([2]; 150 mg/kg) was “(38)”, the “NDS day 3, median neurological deficit score” value ([2]; 300 mg/kg) was “NA, (40)” and the “NDS day 3” value ([2]; 300 mg/kg, individual rats) was “NA, 40”.

In the case of `CNC[C@H](O)c1ccc(O)c(O)c1` [Epinephrine, epinephrine], the “Average Survival days” value [1, 4] was 1 days, the Survival days [1, 4] was 1 days and the “Average Survival days” value ([1]; 0.01 mg/kg, normothermic conditions) was 1 days.

In the case of `CCO` [Ethanol, ethanol], the “Average Survival days” value ([1]; 0.5 g/kg, normothermic conditions) was 1 days, the “Average Survival days” value [1, 5] was 1 days and the Survival days [1, 5] was 1 days. For the same compound, the “Average Survival days” value ([1]; 1 g/kg, normothermic conditions) was 1.5 days, the “Average Survival days” value ([1]; 1.5 g/kg, normothermic conditions) was 3 days and the “Average Survival days” value ([1]; 2 g/kg, normothermic conditions) was 3.33 days. For the same compound, the “Average Survival days” value ([1]; 2.5 g/kg, normothermic conditions) was 1 days, the “Average Survival days” value ([1]; 3 g/kg, normothermic conditions) was 1 days and the “effect on mortality / neurological deficit score” value [1] was “mild reduction in mortality”. The “NDS day 3, median neurological deficit score” value ([2]; 1.5 g/kg) was “NA, (36.5)”, the “NDS day 3, median neurological deficit score” value ([2]; 2 g/kg) was “(31)” and the “neurological deficit score at 72 hours after resuscitation” value ([2]; ethanol alone 1 g/kg, 1.5 g/kg and 2 g/kg) was “reduced the neurological deficit score”. For the same compound, the “NDS 72 hours after resuscitation” value [2] was 31, the “minimum dose able to reliably induce hypothermia” value (rats) was “about 0.75 g/kg” and the “dose at which the hypothermic effect plateaus” value (rats; higher doses do not further lower the temperature) was 3000 mg/kg. For the same compound, the temperature reached (rats; maintained during infusion) was “about 33 °C” and the “acute ingestion considered toxic” value [3] was “above 10 g/kg”.

With `NCCc1ccc(O)c(O)c1` [Dopamine, dopamine] the “Average Survival days” value [1, 6] was 1 days and the Survival days [1, 6] was 1 days.

With Insulin: antihyperglycemic compound the “Average Survival days” value [1, 7] was 2 days and the Survival days [1, 7] was 2 days.

For `Cc1[nH]c(=O)c(C#N)cc1-c1ccncc1` [Milrinone], the “Average Survival days” value ([1]; 0.3 mg/kg, normothermic conditions) was 1 days.

With `CCN(CC)CC(=O)Nc1c(C)cccc1C` [Lidocaine, 2-(diethylamino)-N-(2,6-dimethylphenyl)acetamide] the “Average Survival days” value [1, 8] was 1 days and the Survival days [1, 8] was 1 days.

With `NC(=O)CC[C@@H]1NC(=O)[C@H](Cc2ccccc2)NC(=O)[C@H](Cc2ccc(O)cc2)NC(=O)[C@@H](N)CSSC[C@@H](C(=O)N2CCC[C@H]2C(=O)N[C@@H](CCCN=C(N)N)C(=O)NCC(N)=O)NC(=O)[C@H](CC(N)=O)NC1=O` [Vasopressin] the “Average Survival days” value ([1]; 0.5 U/kg, normothermic conditions) was 5 days, the “Average Survival days” value ([1]; 0.75 U/kg, normothermic conditions) was 3 days and the “effect on mortality / neurological deficit score” value [1] was “minimal effect on mortality or the neurological deficit score”. For the same compound, the enhancement of survival ([1]; vasopressin alone, normothermic conditions) was “approximately 3 fold”, the “NDS day 3, median neurological deficit score” value ([2]; 0.5 U/kg) was “(36)” and the “NDS day 7” value ([2]; 0.5 U/kg, individual rats) was “NA, NA, 22”. The “NDS day 7” value ([2]; 0.5 U/kg, single surviving rat (summary table)) was “NA, NA, 22”, the “NDS day 3, median neurological deficit score” value ([2]; 0.75 U/kg) was “(30)” and the “NDS 72 hours after resuscitation” value [2] was 30. The “neurological deficits 72 hours after resuscitation” value ([2]; vasopressin alone) was “reduced neurological deficits”.
